# Results published in patent US6140368A, “Naphthols useful in antiviral methods” (The Regents of the University of California, priority 1998, dated 2000).
# Read-outs that look alike come from different tables or passages of the source.
# Assays:
# [1] = molecular target: HIV reverse transcriptase (Human immunodeficiency virus type 1 group M subtype B, UniProt P03366); assay: Reverse transcriptase scintillation proximity assay (Example 4, Table 2); type: biochemical; conditions: for remaining activity at 10 µM: 0.05 h, 10 μM inhibitor, relative to dimethyl sulfoxide = 100%, read-out: % RT activity remaining at 10 μM
# In short: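 Purified RT with biotinylated 17mer/50mer RNA-DNA template-primer (39 nm), pH 8.0 Tris with 10 mM MgCl2, 60 mM KCl, dNTPs plus tritiated dTTP; inhibitor preincubated 10 min at 37 °C before enzyme, reaction 3 min. Incorporation read by streptavidin SPA counting.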
# HIV integrase [2] = molecular target: T1, HIV integrase (Human immunodeficiency virus type 1 group M subtype B, UniProt P04585); assay: biochemical
# HIV integrase [3] = molecular target: T1, HIV integrase; assay: biochemical; remark: listed apart in the source
# [4] = read-out: Inhibition of 3' processing activity (IC50)
# [5] = read-out: Inhibition of strand transfer (IC50)
SMILES,IC50 ([1]; read-out: IC50 (RT activity)) [nM],IC50 (HIV integrase [2]; [4]) [nM],IC50 (HIV integrase [3]; [5]) [nM],remaining activity at 10 µM [1] [%],IC50 (HIV integrase [2]; Inhibition of 3' processing activity (IC50)) [nM],IC50 (HIV integrase [3]; Inhibition of strand transfer (IC50)) [nM]
"O=C(Nc1ccc2c(O)c(N=Nc3ccccc3)c(S(=O)(=O)O)cc2c1)Nc1ccc2c(O)c(N=Nc3ccccc3)c(S(=O)(=O)O)cc2c1 [Compound 4, calcomine orange, reference compound]",1500,2000,2000,–,–,–
COc1cc(N=Nc2c(S(=O)(=O)O)cc3cc(NC(=O)Nc4ccc5c(O)c(N=Nc6cc(OC)cc(OC)c6)c(S(=O)(=O)O)cc5c4)ccc3c2O)cc(OC)c1 [Compound 38],–,> 3000,> 3000,47,–,–
O=C(Nc1ccc2c(O)c(N=Nc3cccc4c(=O)[nH][nH]c(=O)c34)c(S(=O)(=O)O)cc2c1)Nc1ccc2c(O)c(N=Nc3cccc4c(=O)[nH][nH]c(=O)c34)c(S(=O)(=O)O)cc2c1 [Compound 49],–,2000,1000,1,–,–
O=C(Nc1ccc2c(O)c(N=Nc3c(Cl)cc(C(=O)O)cc3Cl)c(S(=O)(=O)O)cc2c1)Nc1ccc2c(O)c(N=Nc3c(Cl)cc(C(=O)O)cc3Cl)c(S(=O)(=O)O)cc2c1 [Compound 52],–,200,500,1.3,–,–
Cc1ccc(CO)cc1N=Nc1c(S(=O)(=O)O)cc2cc(NC(=O)Nc3ccc4c(O)c(N=Nc5cc(CO)ccc5C)c(S(=O)(=O)O)cc4c3)ccc2c1O [Compound 55],–,> 3000,> 3000,24,–,–
COc1cc(N=Nc2c(S(=O)(=O)O)cc3cc(NC(=O)Nc4ccc5c(O)c(N=Nc6cc(OC)c(OC)cc6C(=O)O)c(S(=O)(=O)O)cc5c4)ccc3c2O)c(C(=O)O)cc1OC [Compound 60],–,800,2000,6,–,–
O=C(Nc1ccc2c(O)c(N=Nc3ccc([N+](=O)[O-])cc3)c(S(=O)(=O)O)cc2c1)Nc1ccc2c(O)c(N=Nc3ccc([N+](=O)[O-])cc3)c(S(=O)(=O)O)cc2c1 [Compound 46],–,–,–,4.6,> 3000,> 3000
COc1ccc(N=Nc2c(S(=O)(=O)O)cc3cc(NC(=O)Nc4ccc5c(O)c(N=Nc6ccc(OC)c(OC)c6)c(S(=O)(=O)O)cc5c4)ccc3c2O)cc1OC [Compound 39],–,2000,3000,12,–,–
O=C(O)Cc1ccc(N=Nc2c(S(=O)(=O)O)cc3cc(NC(=O)C(=O)Nc4ccc5c(O)c(N=Nc6ccc(CC(=O)O)cc6)c(S(=O)(=O)O)cc5c4)ccc3c2O)cc1 [Compound 93],–,900,500,–,–,–
O=C(O)CC(C(=O)O)c1ccc(N=Nc2c(S(=O)(=O)O)cc3cc(NC(=O)C(=O)Nc4ccc5c(O)c(N=Nc6ccc(C(CC(=O)O)C(=O)O)cc6)c(S(=O)(=O)O)cc5c4)ccc3c2O)cc1 (stereo not shown) [Compound 97],–,500,1000,–,–,–
COc1cc(N=Nc2c(S(=O)(=O)O)cc3cc(NC(=O)Nc4ccc5c(O)c(N=Nc6cc(OC)c(OC)c(OC)c6)c(S(=O)(=O)O)cc5c4)ccc3c2O)cc(OC)c1OC [Compound 66],–,800,500,–,–,–
CC(=O)Nc1ccc(N=Nc2c(S(=O)(=O)O)cc3cc(NC(=O)C(=O)Nc4ccc5c(O)c(N=Nc6ccc(NC(C)=O)cc6)c(S(=O)(=O)O)cc5c4)ccc3c2O)cc1 [Compound 108],–,1000,700,–,–,–
O=C(Nc1ccc2c(O)c(N=Nc3ncn[nH]3)c(S(=O)(=O)O)cc2c1)Nc1ccc2c(O)c(N=Nc3ncn[nH]3)c(S(=O)(=O)O)cc2c1 [Compound 65],–,800,500,–,–,–
Cc1cc2nc(N=Nc3c(S(=O)(=O)O)cc4cc(NC(=O)C(=O)Nc5ccc6c(O)c(N=Nc7nc8cc(C)c(C)cc8[nH]7)c(S(=O)(=O)O)cc6c5)ccc4c3O)[nH]c2cc1C [Compound 114],–,1000,300,–,–,–
O=C(Nc1ccc2c(O)c(N=Nc3ccc(I)cc3)c(S(=O)(=O)O)cc2c1)Nc1ccc2c(O)c(N=Nc3ccc(I)cc3)c(S(=O)(=O)O)cc2c1 [Compound 71],–,900,1000,–,–,–
C=Cc1ccc(N=Nc2c(S(=O)(=O)O)cc3cc(NC(=O)Nc4ccc5c(O)c(N=Nc6ccc(C=C)cc6)c(S(=O)(=O)O)cc5c4)ccc3c2O)cc1 [Compound 74],–,2000,1500,–,–,–
